Source: patent publication EP0638566B1, “5-Aminoflavone derivatives, their preparation and their use as antibacterial, anti-estrogenic and/or antitumor agent” (KYOWA HAKKO KOGYO CO., LTD., priority 1993, dated 1995)
≈ marks a conversion by molar mass, not a printed value. Structures can show the parent of a compound that is named as a salt. Where two headings read alike, the source gives them in different places. One block for each compound: values may come before it.

What was measured:
Bacillus subtilis #10107 = assay: Antibacterial activity, agar dilution method; type: cell-based
Method: Antibacterial activity of compound (I) against Bacillus subtilis #10107 [Minimum Inhibition Concentration(MIC; µg/ml)] is shown in Table 6. Minimum Inhibition Concentration was determined by agar dilution method at pH 7.0.

[1] = test system: Human mammary cancer MCF-7 cell; assay: Human mammary cancer MCF-7 cell growth inhibition test (neutral red); type: cell-based
Method: Human mammary cancer MCF-7 cell growth inhibition test
Each 0.1 ml of MCF-7 cells which had been prepared to 5 x 10^4/ml using a medium (referred to as Medium B hereinafter) prepared by adding 10% bovine fetal serum, 10^-8M estradiol (manufactured by Sigma), 100 units/ml penicillin and 100 µg/ml streptomycin to RPMI1640 medium was distributed in each well of 96 well-microtiter plate. […] Supernatant was removed, each 0.1 ml of Medium B containing 0.02% neutral red was added to the residue, the mixture was cultured at 37 °C for 1 hour in a CO2 gas incubator and the cells were stained by neutral red dye. Supernatant was removed and the residue was washed once with a physiological saline. Then, the dye was extracted with 0.001N hydrochloric acid/30% ethanol and the absorbance at 550 nm was determined with a microplatereader.

[2] = test system: uterus weight of immature mice; assay: Effect against the increase in uterus weight of immature mice; type: in vivo, female BALB/c mice; details: for Weight of uterus: dose 5 mg/kg, oral, three days, uteri isolated after four days
Method: The effect against the increase in uterus weight of immature mice
Immature female BALB/c mice, 4 weeks age, were divided into two groups and 50 µg of estradiol was subcutaneously administered to the animals of one group in the chest. The test compounds were repeatedly administered orally to each group (8 animals per group) for three days since the date of estradiol administration. After four days, the uteri were isolated and the weight thereof was measured.
In Table 2, "estradiol (-)" represents an estradiol-untreated group and "estradiol (+)" represents an estradiol-treated group.

[3] = test system: estrogen-dependent human mammary cancer MCF-7; assay: Antitumor effects against MCF-7 tumor transplanted in nude mice; type: in vivo, female BALB/c-nu/nu mice; details: Mus musculus, MCF7, 5 days per week for two weeks, read-out: T/C; for response vs control in vivo at 50 mg/kg: dose 50 mg/kg oral
Source text: Antitumor effects against estrogen-dependent human mammary cancer MCF-7
The tumor fragment (2mm x 2mm x 2mm) of human hormone dependent mammary cancer MCF-7 was transplanted subcutaneously in the flank of female BALB/c-nu/nu mice (Nihon Crea), 7 to 9 weeks age. […] 3 to 4 Weeks after transplantation, mice of the tumor volume of 25 to 200 mm^3 were selected, and the test compounds were orally administered repeatedly to the groups (5 animals per group) for 5 days per a week, for total two weeks. In addition, estradiol propionate was administered again on the date of initial administration of the test compounds. Length and width of the tumor were determined every day, and the tumor volumes were calculated by means of ellipsoid approximation according to the following equation: […] [formula] The tumor volume at initial administration (Vo) and on the day of judgement (V) was calculated, and the tumor growth rate (V/Vo) was calculated. T/C value was obtained as the ratio of V/Vo value of treated group relative to that of control group.

[4] = test system: estrogen-dependent human mammary cancer Br-10; assay: Antitumor effects against Br-10 tumor transplanted in nude mice; type: in vivo, female BALB/c-nu/nu mice; details: 5 days per week for two to four weeks
Source text: Antitumor effects against estrogen-dependent human mammary cancer Br-10
The tumor fragment (2mm x 2mm x 2mm) of human hormone dependent mammary cancer Br-10 was transplanted subcutaneously in the flank of female BALB/c-nu/nu mice (Nihon Crea), 7 to 9 weeks age. […] 3 to 4 Weeks after transplantation, mice the tumor volume of which increased to 30 to 150 mm^3 were selected, and the test compounds were orally administered repeatedly to the groups (5 animals per group) for 5 days per a week, for total two to four weeks. Estradiol propionate was additionally administered on the date of initial administration of the test compounds and 14 days after the administration. Length and breadth of the tumor were determined every day, and the tumor volumes were calculated by means of ellipsoid approximation according to the above equation. The tumor volume at initial administration (Vo) and on the day of judgement (V) was calculated, and the tumor growth rate (V/Vo) was calculated. T/C value was obtained as the ratio of V/Vo value of treated group relative to that of control group.

[5] = Minimum Inhibition Concentration, agar dilution method at pH 7.0, read-out: MIC
[6] = MCF7, MCF-7 cells, medium with 10^-8M estradiol, 72 hours, neutral red, absorbance at 550 nm, read-out: IC50

MIC (Bacillus subtilis #10107; [5]): 52.1 µg/mL (≈ 128 µM)
Structure (SMILES): CN(C)CCCNc1c(F)c(N)c2c(=O)cc(-c3ccc(N)c(F)c3)oc2c1F [Compound 18, 5-Amino-2-(4-amino-3-fluorophenyl)-7-[3-(dimethylamino)propylamino]-6,8-difluoro-4H-1-benzopyran-4-one]

MIC (Bacillus subtilis #10107; [5]): 13 µg/mL (≈ 32.1 µM)
Structure (SMILES): Cc1c(F)c(NCCCN(C)C)c2c(=O)cc(-c3ccc(N)c(F)c3)oc2c1F [Compound 37, 2-(4-Amino-3-fluorophenyl)-5-[3-(dimethylamino)propylamino]-6,8-difluoro-7-methyl-4H-1-benzopyran-4-one]

IC50 [1, 6]: 210 nM
Structure (SMILES): Nc1ccc(-c2cc(=O)c3c(N)c(F)c(Cl)c(F)c3o2)cc1F [Compound 5, 5-Amino-2-(4-amino-3-fluorophenyl)-7-chloro-6,8-difluoro-4H-1-benzopyran-4-one]

Structure (SMILES): CC/C(=C(\c1ccccc1)c1ccc(OCCN(C)C)cc1)c1ccccc1 [Tamoxifen]
Weight of uterus ([2]; estradiol (+) (50 µg estradiol s.c.)): 47 mg | Weight of uterus ([2]; estradiol (-) (estradiol-untreated group)): 49 mg | anti-estrogenic activity (increase in the uterus weight observed in an estradiol-treated group) ([2]; result in words, estradiol-treated group, oral administration): weak anti-estrogenic activity | weight of the uterus in an estradiol-untreated group ([2]; result in words, estradiol-untreated group): significantly increases the weight of the uterus | response vs control in vivo at 5 mg/kg ([3]; dose 5 mg/kg oral, judgement day 22): 25% | T/C ([4]; dose 5 mg/kg oral, judgement day 25): 0.58

IC50 [1, 6]: 39 nM
Structure (SMILES): CN(C)c1c(F)c(N)c2c(=O)cc(-c3ccc(N)c(F)c3)oc2c1F [Compound 17, 5-Amino-2-(4-amino-3-fluorophenyl)-7-dimethylamino-6,8-difluoro-4H-1-benzopyran-4-one]
T/C ([4]; dose 25 mg/kg oral, judgement day 18): 0.22

Structure (SMILES): CN(C)Cc1c(F)c(N)c2c(=O)cc(-c3ccc(N)c(F)c3)oc2c1F [Compound 42, Hydrochloride of 5-amino-2-(4-amino-3-fluorophenyl)-7-dimethylaminomethyl-6,8-difluoro-4H-1-benzopyran-4-one]
IC50 ([1]; MCF7, 72 h): 72 nM

IC50 [1, 6]: 2500 nM
Structure (SMILES): C[S+]([O-])c1c(F)c(N)c2c(=O)cc(-c3ccc(N)c(F)c3)oc2c1F (centres unmarked) [Compound 11, 5-Amino-2-(4-amino-3-fluorophenyl)-6,8-difluoro-7-methylsulfinyl-4H-1-benzopyran-4-one]

MIC (Bacillus subtilis #10107; [5]): 13 µg/mL (≈ 30 µM)
Structure (SMILES): CCN(CC)CCCNc1c(F)c(C)c(F)c2oc(-c3ccc(N)c(F)c3)cc(=O)c12 [Compound 38, 2-(4-Amino-3-fluorophenyl)-5-[3-(diethylamino)propylamino]-6,8-difluoro-7-methyl-4H-1-benzopyran-4-one]

MIC (Bacillus subtilis #10107; [5]): 13 µg/mL (≈ 37.3 µM)
Structure (SMILES): CC(=O)c1c(F)c(N)c2c(=O)cc(-c3ccc(N)c(F)c3)oc2c1F [Compound 22, 7-Acetyl-5-amino-2-(4-amino-3-fluorophenyl)-6,8-difluoro-4H-1-benzopyran-4-one]

Structure (SMILES): COc1c(F)c(N)c2c(=O)cc(-c3ccc(N)c(F)c3)oc2c1F [Compound 8, 5-Amino-2-(4-amino-3-fluorophenyl)-6,8-difluoro-7-methoxy-4H-1-benzopyran-4-one]
IC50 ([1]; MCF7, 72 h): 100 nM

IC50 [1, 6]: 160 nM
Structure (SMILES): Nc1ccc(-c2cc(=O)c3c(N)c(F)c(Br)c(F)c3o2)cc1F [Compound 6, 5-Amino-2-(4-amino-3-fluorophenyl)-7-bromo-6,8-difluoro-4H-1-benzopyran-4-one]
response vs control in vivo at 50 mg/kg ([3]; judgement day 21): 54%

IC50 [1, 6]: 1400 nM
Structure (SMILES): CCOC(=O)c1c(F)c(N)c2c(=O)cc(-c3ccc(N)c(F)c3)oc2c1F [Compound 13, 5-Amino-2-(4-amino-3-fluorophenyl)-7-ethoxycarbonyl-6,8-difluoro-4H-1-benzopyran-4-one]

IC50 [1, 6]: 130 nM
Structure (SMILES): CCc1c(F)c(N)c2c(=O)cc(-c3ccc(N)c(F)c3)oc2c1F [Compound 2, 5-Amino-2-(4-amino-3-fluorophenyl)-7-ethyl-6,8-difluoro-4H-1-benzopyran-4-one]

Structure (SMILES): CSc1c(F)c(N)c2c(=O)cc(-c3ccc(N)c(F)c3)oc2c1F [Compound 10, 5-Amino-2-(4-amino-3-fluorophenyl)-6,8-difluoro-7-methylthio-4H-1-benzopyran-4-one]
IC50 ([1]; MCF7, 72 h): 190 nM

IC50 [1, 6]: 220 nM
Structure (SMILES): Nc1ccc(-c2cc(=O)c3c(N)c(F)c(F)c(F)c3o2)cc1F [Compound 34, 5-Amino-2-(4-amino-3-fluorophenyl)-6,7,8-trifluoro-4H-1-benzopyran-4-one]

Structure (SMILES): NCc1c(F)c(N)c2c(=O)cc(-c3ccc(N)c(F)c3)oc2c1F [Compound 41, 5-Amino-2-(4-amino-3-fluorophenyl)-7-aminomethyl-6,8-difluoro-4H-1-benzopyran-4-one]
MIC (Bacillus subtilis #10107; pH 7): 3.26 µg/mL (≈ 9.72 µM) | response vs control in vivo at 50 mg/kg ([3]; judgement day 18): 1.1% | IC50 ([1]; MCF7, 72 h): 26 nM

IC50 [1, 6]: 46 nM
Structure (SMILES): COCc1c(F)c(N)c2c(=O)cc(-c3ccc(N)c(F)c3)oc2c1F [Compound 43, 5-Amino-2-(4-amino-3-fluorophenyl)-6,8-difluoro-7-methoxymethyl-4H-1-benzopyran-4-one]

Structure (SMILES): Nc1ccc(-c2cc(=O)c3c(N)c(F)c(CO)c(F)c3o2)cc1F [Compound 39, 5-Amino-2-(4-amino-3-fluorophenyl)-6,8-difluoro-7-hydroxymethyl-4H-1-benzopyran-4-one]
response vs control in vivo at 50 mg/kg ([3]; judgement day 14): 1.6% | IC50 ([1]; MCF7, 72 h): 62 nM

IC50 [1, 6]: 65 nM
Structure (SMILES): CCc1cc(-c2cc(=O)c3c(N)c(F)c(C)c(F)c3o2)ccc1N [Compound 26, 5-Amino-2-(4-amino-3-ethylphenyl)-6,8-difluoro-7-methyl-4H-1-benzopyran-4-one]

Structure (SMILES): Nc1ccc(-c2cc(=O)c3c(N)c(F)c(N)c(F)c3o2)cc1F [Compound 16, 5,7-Diamino-2-(4-amino-3-fluorophenyl)-6,8-difluoro-4H-1-benzopyran-4-one]
response vs control in vivo at 12.5 mg/kg ([3]; dose 12.5 mg/kg oral, judgement day 22): 18% | T/C ([4]; dose 12.5 mg/kg oral, judgement day 18): 0.24 | IC50 ([1]; MCF7, 72 h): 7.7 nM

Structure (SMILES): CC(=O)OCc1c(F)c(N)c2c(=O)cc(-c3ccc(N)c(F)c3)oc2c1F [Compound 44, 7-Acetoxymethyl-5-amino-2-(4-amino-3-fluorophenyl)-6,8-difluoro-4H-1-benzopyran-4-one]
response vs control in vivo at 25 mg/kg ([3]; dose 25 mg/kg oral, judgement day 14): 6.1% | IC50 ([1]; MCF7, 72 h): 26 nM

Structure (SMILES): CN(C)CCOc1c(F)c(N)c2c(=O)cc(-c3ccc(N)c(F)c3)oc2c1F [Compound 9, 5-Amino-2-(4-amino-3-fluorophenyl)-7-(2-dimethylaminoethoxy)-6,8-difluoro-4H-1-benzopyran-4-one]
MIC (Bacillus subtilis #10107; pH 7): 52.1 µg/mL (≈ 132 µM) | response vs control in vivo at 50 mg/kg ([3]; judgement day 15): 42% | IC50 ([1]; MCF7, 72 h): 1400 nM

IC50 [1, 6]: 92 nM
Structure (SMILES): Cc1c(F)c(N)c2c(=O)cc(-c3ccc(N)c(Cl)c3)oc2c1F [Compound 24, 5-Amino-2-(4-amino-3-chlorophenyl)-6,8-difluoro-7-methyl-4H-1-benzopyran-4-one]
